Results taken from patent US12643891B2, “SPAK/OSR inhibitors and methods of using same” (YALE UNIVERSITY, priority 2019, dated 2026).

Legend:
[1] = system: primary GBM cells; experiment: Nanogrooved pattern glioblastoma cell migration assay; type: cell-based, human; conditions: in vitro
Protocol: Cell culture: All primary cell lines were derived from intraoperative tissue samples from patients treated surgically for newly diagnosed glioblastoma multiforme without prior treatment. Primary cells were cultured in Dulbecco's Modified Eagle Medium: Nutrient Mixture F-12, B27 serum free supplement (Gibco), 20 ng/mL epidermal growth factor (EGF), and 20 ng/ml fibroblast-derived growth factor (FGF).
Nanogrooved pattern cell migration assay: Migration of glioma cells was quantified using a novel directional migration assay using nano-ridges/grooves of 400 nm in groove width, 400 nm in ridge width, and 500 nm in depth, constructed of transparent poly(urethane acrylate) (PUA), and fabricated using UV-assisted capillary lithography (Kim & Eberwine, 2010, Anal. Bioanl. Chem. 397:3173-3178). Cells were cultured on glass covered with a nanogrooved pattern substratum, which was previously glued onto the bottom surface of the custom-made Mat-tek dish (P35G-20-C). […] Cell migration was quantified using time-lapse microscopy using a motorized inverted microscope (Olympus IX81) equipped with a Cascade 512B II CCD camera and temperature and gas controlling environmental chamber. Phase-contrast and epi-fluorescent cell images were automatically recorded under 4*1.6× objective using the Slidebook 4.1 (Intelligent Imaging Innovations, Denver, CO) for 10 hours at 10 minute intervals. […]

[2] = system: GBM cell lines; experiment: Glioblastoma cell proliferation / viability (MTT); type: cell-based, human; conditions: FIG. 30
Protocol: Glioblastoma cells were plated in triplicates in 96-well plates at a cell density of 10,000 cells per well and incubated with increasing concentrations of (7a) inhibitor for 72 hs. Cell viability was determined by Thiazolyl Blue Tetrazolium Bromide (MTT) assay (Sigma) according to manufacturer instructions. IC50 was determined using GraphPad software by non-linear regression analysis (log (inh) vs. normalized response).

[3] = system: GMB intracranial xenograft; experiment: Human GBM intracranial xenograft mouse model; type: in vivo
Description: FIGS. 32A-32B illustrate that (6a) reduces tumor growth in vivo in a human GMB intracranial xenograft mouse model. FIG. 32A: Schematic of the human GMB intracranial xenograft. FIG. 32B: Tumor growth profiles at two (6a) doses.

[4] = system: primary human astrocytes; experiment: Migration of primary human astrocytes; type: cell-based
[5] = system: melanoma cells; experiment: Melanoma cell migration in vitro; type: cell-based; conditions: FIG. 35
[6] = system: pancreatic cancer cells; experiment: Pancreatic cancer cell migration in vitro; type: cell-based; conditions: FIG. 36
[7] = system: GBM cell lines; experiment: Annexin V apoptosis assay in GBM cell lines; type: cell-based, human; conditions: 1 μM, four GBM cell lines
Protocol: FIG. 37 depicts annexin V assays performed on four GBM cell lines after 1 μM of (6a) or vehicle control.

[8] = system: GBM cells; experiment: Cell cycle FACS analysis of GBM cell lines; type: cell-based, human; conditions: 2 μM
Protocol: FIG. 38A: Example cell cycle FACS data for 612 cells treated with 2 μM of (6a). FIG. 38B: Cell cycle analysis of GBM cell lines treated with 2 μM of (6a).

[9] = system: GBM 612, GBM120; experiment: Temozolomide IC50 in combination with (6a) in GBM cell lines; type: cell-based, human
Description: FIG. 39 depicts that the IC50 values for temozolomide (TMZ) decrease 2-4 fold when used in combination (6a) in two different GBM cell lines (GBM 612, GBM120).

[10] = system: GBM cells; experiment: Clonogenicity of GBM cells after (6a) pre-treatment and irradiation; type: cell-based, human; conditions: 24 hs pre-treatment 1 μM, irradiated; 15 days after treatment
Protocol: (§1) FIGS. 40A-40C depict that SPAK/OSR1 inhibition sensitizes GBM to radiation and decreases expression of DNA damage response genes. FIG. 40A: GBM cells were pre-treated for 24 hs with 1 μM (6a) or vehicle control and irradiated. After 72 hs, cells were re-plated to study clonogenicity. […] FIG. 40C: Expression of DNA damage response genes by RNAseq in cells treated with (6a) for 6 hs (dashed line delimits p<0.05).

[11] = system: PARP-1; experiment: PARP-1 Western blot in GBM cells; type: cell-based, human; conditions: after 24 hs
Protocol: as §1

[12] = Formulation/tolerance test, intracranial, healthy tumor free mice; type: in vivo; conditions: 100 μM in DMSO/PEG formulation, intracranially
Protocol: FIG. 41 depicts treating healthy, tumor free, mice (ms_#) intracranially with a DMSO/PEG formulation containing vehicle or 100 μM (6a).

[13] = target: T1, SPAK (Homo sapiens, UniProt Q9UEW8); experiment: In vitro SPAK ELISA assay monitoring NKCC1 phosphorylation (T^PNKCC1 antibody); type: biochemical; conditions: screening platform, FIG. 21; read-out: in vitro IC50
T1 construct: GST (N, cleaved yes); made in house; host or cells: E. coli EcAR7 with Sep-OTS

For `COc1ccc(Nc2ncc(C#N)c(Nc3ccccc3C(N)=O)n2)cc1N1CCN(C)CC1` [(6a), 2-((5-cyano-2-((4-methoxy-3-(4-methylpiperazin-1-yl)phenyl)amino)pyrimidin-4-yl)amino)benzamide], the “migration of primary GBM cells” value [1] was “reduced migration of primary GBM cells”, the “proliferation and viability of primary GBM cell lines” value [2] was “impedes proliferation and viability” and the overall survival [3] was “extended overall survival”. For the same compound, the tumor growth [3] was “reduction in tumor growth”, the tumor volume [3] was “reduced tumor volume” and the “activity on primary human astrocytes (migration)” value [4] was “not active”. The melanoma cell migration [5] was “reduced melanoma cell migration”, the “pancreatic cancer cell migration” value [6] was “reduced” and the “apoptosis in GBM cell lines” value [7] was “induces apoptosis”. For the same compound, the “cell cycle arrest in GBM cells” value [8] was “induces G2-M arrest”, the “decrease of temozolomide (TMZ) IC50 in combination with (6a)” value [9] was 2-4 fold and the “clonogenic potential after irradiation” value [10] was “lowest in the combination treatment”. For the same compound, the “full length PARP-1 level” value [11] was “decrease full length PARP-1”, the tolerance [12] was “well tolerated” and the IC50 [13] was roughly 60 nM.
